The record followed here is patent US11833251B2, “Pharmaceutical methods and compositions” (THE UNIVERSITY OF SUSSEX, priority 2018, dated 2023).

The structures appear in SMILES notation. ≈ marks a conversion by molar mass, not a printed value.

The data set in a line: Saturation solubility test of propranolol in various solvents at 37° C. It counts as physicochemical.

Consider `CC(C)NCC(O)COc1cccc2ccccc12` (centres unmarked) [Propranolol, propranolol], for which the “Mean concentration (mg/ml) ± SD” value stood at 1.32 ± 0.00 mg/mL (propranolol in Kolliphor EL, 37° C., n = 3); 1.86 ± 0.00 mg/mL (propranolol in Tween 20, 37° C., n = 3); 1.89 ± 0.01 mg/mL (propranolol in Tween 80, 37° C., n = 3). In addition, where the note is “propranolol in Water, 37° C., n = 3, read-out: Mean concentration (mg/ml) ± SD”, the solubility thermodynamic was 29.03 ± 0.12 mg/mL (≈ 112 mM). The Inference result is on record as “Slightly soluble” (solubility of propranolol in Kolliphor EL), “Slightly soluble” (solubility of propranolol in Tween 20), “Slightly soluble” (solubility of propranolol in Tween 80) and “Sparingly soluble” (solubility of propranolol in Water).
